The test system of assay [1] is cardiac myocytes. Briefly: Cardiac myocyte cell death under hypoxia / normoxia. The class given is cell-based. The source says: Accordingly, it can be seen that inhibitor compounds which bind to the novel BAX site can protect cardiac myocytes from cell death induced by hypoxia.
The test system of assay [2] is mitochondrial apoptosis-induced channel. Particulars: Peixoto et al. Biochem J. 2009; cited from earlier work.
Assay [3] concerns the target T1, BAX (Homo sapiens, UniProt Q07812). Briefly: Liposome release assay (ANTS/DPX release by tBID-activated BAX). The class given is biochemical. How it is done:
FIG. 3. Left: Kinetic trace of percent release of ANTS and DPX from liposomes in response to tBID activated BAX in the absence (blue) and presence of iMAC1 (green) and iMAC2 (Red). Right: Percent release after 20 minutes at different doses of iMAC1 (green), iMAC2 (red) and iMAC3 (blue). Each molecule was tested at 6, 3 and 1.5 μM, high to low doses are indicated by dark to light tones.
FIG. 18A-18B. […] B) Docked structure of […] within the novel BAX site.
iMAC1 and iMAC2 Inhibit BAX Activation in Liposome Release Assays: Liposomes containing the fluorophore, ANTS, and the quencher, DPX, were incubated with 200 nM BAX activated with 30 nM tBID resulting in BAX-mediated pore formation in the liposomal membrane and release of ANTS and DPX.

Assay [4] concerns the target T1, BAX. Briefly: NMR chemical shift perturbation of 15N-BAX upon titration. The assay is classed as binding. The text has this:
FIG. 4A-B. Measured chemical shift changes of 15N-BAX upon iMAC1 and iMAC2 titration up to a ratio of 1:4 BAX:iMAC are plotted as a function of BAX residue number. Residues with significant backbone amide chemical shift change are highlighted in orange. Highest significant chemical shift changes (twice the calculated significance threshold) are highlighted in red. […] Chemical shift changes in other regions of the structure are not localized and predominantly occur in hydrophobic residues at the hydrophobic core of the BAX structure. Regions that previously identified to be involved in regulating BAX activation are shown in violet shading (helix α1 and α6), teal shading (helix α2) and yellow shading (helix α9).
FIG. 13: Measured chemical shift changes of ^15N-BAX upon octyl glucoside detergent titration, below the detergent's CMC point, are plotted as a function of BAX residue number. Residues with significant backbone amide chemical shift change are highlighted in orange. Highest significant chemical shift changes (twice the calculated significance threshold) are highlighted in red.
Significant CSP mapped onto the surface and ribbon depictions of BAX (FIG. 5), the BAX trigger site (blue), the canonical BH3-binding site and a9 (green) are included for comparison. Affected residues are represented by the orange and red spheres in the ribbon diagram and by the orange and red bars in the plot (the calculated significance threshold is marked in orange and is equal to the average shift plus the standard deviation while values at double the threshold are marked in red).

Assay [5] deals with oligomeric BAX (Homo sapiens, UniProt Q07812). Briefly: Ligand-observed NMR (chemical shift, STD, WATER LOGSY). The class given is binding. The following applies: aromatic peaks of ligand observed. The text has this:
FIG. 22. iMACs bind to both monomer and oligomeric BAX.
iMACs Bind to Both Monomeric and Oligomeric BAX in vitro.

T1 sequence (Q07812 whole entry): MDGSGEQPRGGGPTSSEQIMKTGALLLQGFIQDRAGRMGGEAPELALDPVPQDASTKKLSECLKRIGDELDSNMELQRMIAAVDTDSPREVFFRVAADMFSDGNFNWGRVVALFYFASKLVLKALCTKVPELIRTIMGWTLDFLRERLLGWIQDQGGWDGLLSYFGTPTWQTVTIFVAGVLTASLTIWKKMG
oligomeric BAX, sequence (Q07812 whole entry): as above

`OC(CN1CCNCC1)Cn1c2ccc(Br)cc2c2cc(Br)ccc21` (stereo not shown) [iMAC1]: in assay [1] (hypoxia, compared to vehicle (0.2% DMSO)), the “protection from cell death” value is “protects cardiac myocytes from cell death induced by hypoxia”. Besides, in assay [1] (normoxia), the “effect on cardiac myocytes” value was “no effect”. Moreover, the “inhibition of cytochrome c release and mitochondrial apoptosis-induced channel activity” value in assay [2] is “more potent inhibitors”.
Consider `Cl.Cl.FC(CN1CCNCC1)Cn1c2ccc(Br)cc2c2cc(Br)ccc21` (stereo not shown) [iMAC2], for which the “inhibition of tBID-induced BAX activation and BAX pore formation (release of ANTS and DPX from liposomes)” value in assay [3] (200 nM BAX, 30 nM tBID, tested at 6, 3 and 1.5 μM, release after 20 minutes) was “inhibit tBID-induced BAX activation and BAX pore formation”. Moreover, in assay [4] (iMAC titration up to a ratio of 1:4 BAX:iMAC), the “region of chemical shift changes of 15N-BAX” value was “concentrated in the region formed by helices α3, α4, α5 and loop α3-α4”. Moreover, the “binding to oligomeric BAX” value in assay [5] is recorded as “binding to both oligomeric BAX”. Besides, the “inhibition of cytochrome c release and mitochondrial apoptosis-induced channel activity” value in assay [2] was “more potent inhibitors”.
With `CCCCCCCCO[C@@H]1O[C@H](CO)[C@@H](O)[C@H](O)[C@H]1O` [n-octyl-3-D-glucoside], the “inhibition of BAX activation and BAX-mediated pore formation in liposomal membranes” value in assay [3] (concentrations well below the critical micelle concentration (CMC)) is “inhibits BAX activation and BAX-mediated pore formation”. For the same molecule, in assay [4] (detergent titration below the detergent's CMC point), the “region of chemical shift changes of 15N-BAX” value was “concentrated in the region formed by helices α3, α4, α5, α6 and loop α3-α4”. Further, the “binding to the novel BAX site by NMR analysis” value in assay [4] (octyl glucoside titration, FIG. 13) was “binding to the novel site that regulates BAX inhibition”.

These data come from patent US20150335671A1, “SMALL-MOLECULE BINDING SITE ON PRO-APOPTOTIC BAX REGULATES INHIBITION OF BAX ACTIVITY” (ALBERT EINSTEIN COLLEGE OF MEDICINE OF YESHIVA UNIVERSITY, priority 2013, published 2015).
